As a reminder, the % Inhibition is the percentage by which the read-out fell short of the control. Broadly, the IC50 is the concentration needed to halve the response being measured.

The values below come from US7595401B2, “Therapeutic compounds and their use in cancer” (Myriad Pharmaceuticals, Inc., priority 2006, dated 2009).

SMILES strings stand for the structures.

One assay deals with Luciferase refolding. Nature of the assay: Luciferase refolding assay. The format is biochemical. The arrangement: key: *Compound is active in Luciferase refolding assay. Particulars: compound fluorescent in FP binding assay.
Consider `CC(C)NC(=O)NC(CCn1c(Sc2cc3c(cc2Br)OCO3)nc2c(N)ncnc21)C1CC1` (centres unmarked) [Example 678, N-(3-{6-Amino-8-[(6-bromo-1,3-benzodioxol-5-yl)thio]-9H-purin-9-yl}-1-cyclopropylpropyl)-N′-isopropylurea], for which the “active in Luciferase refolding assay (asterisk footnote)” value is on record as “*Fluorescent”.
The same measure, in the same setting: for `CC(C)(C)OC(=O)N1CCOC(CCn2cnc(N)c3nc(Sc4cc5c(cc4Br)OCO5)nc2-3)C1` (centres unmarked) [Example 368, tert-Butyl 2-(2-{6-amino-8-[(6-bromo-1,3-benzodioxol-5-yl)thio]-3H-purin-3-yl}ethyl)morpholine-4-carboxylate] the value was “*Fluorescent”; for `COc1ccc(OC)c(Sc2nc3c(N)ncnc3n2CCC(NC(=O)OC(C)(C)C)C2CC2)c1` (centres unmarked) [Example 664, tert-Butyl(3-{6-amino-8-[(2,5-dimethoxyphenyl)thio]-9H-purin-9-yl}-1-cyclopropylpropyl)carbamate], “*Fluorescent”; for `Nc1ncn(CCC2(F)C(F)(F)C(F)(F)C(F)(F)C(F)(F)C2(F)F)c2nc(Sc3cc4c(cc3Br)OCO4)nc1-2` [Example 377, 8-[(6-Bromo-1,3-benzodioxol-5-yl)thio]-3-[2-(undecafluorocyclohexyl)ethyl]-3H-purin-6-amine], “*Fluorescent”.

The next assay deals with purified human Hsp90. Description: Binding Assay: fluorescence polarization with BODIPY-labeled geldanamycin. The settings on record: 5 μM compound, BODIPY-GM 10 nM, Hsp90 30 nM. The essentials: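 Compounds in 2% DMSO final compete with 10 nM BODIPY-GM for 30 nM purified human Hsp90, incubated overnight at room temperature in pH 7.3 HEPES buffer containing Na2MoO4 and DTT. Polarization (mP, ex/em 485/530) normalized to DMSO gives percent inhibition; autofluorescence-confounded data excluded.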
On the technique in general: Polarisation of emitted light reports the rotation of a fluorescent probe.
With `CCOc1ccc(OCC)c(Sc2nc3c(N)ncn(CCc4ccccc4)c-3n2)c1` [Example 190, 8-(2,5-diethoxy-phenylsulfanyl)-3-phenethyl-3H-purin-6-ylamine], the “% Inhibition at 5 μM Compound Concentration” value (shortened to “% Inhibition”) amounted to 8%.
For the molecule `Nc1ncn(CCc2c(Cl)cccc2Cl)c2nc(Sc3cc4c(cc3Br)OCO4)nc1-2` [Example 129, 8-(6-bromo-benzo[1,3]dioxol-5-ylsulfanyl)-3-[2-(2,6-dichloro-phenyl)-ethyl]-3H-purin-6-ylamine], the “% Inhibition” value is 54%.
Take `COc1ccc(OC)c(Sc2nc3c(N)ncn(CC(O)c4ccc(Cl)cc4Cl)c-3n2)c1` (centres unmarked) [Example 108, 2-[6-amino-8-(2,5-dimethoxy-phenylsulfanyl)-purin-3-yl]-1-(2,4-dichloro-phenyl)ethanol]: the “% Inhibition” value is given as 30%.

The assay is the same for the next values; noted with them: BODIPY-GM 10 nM, Hsp90 30 nM.
The molecule `COc1ccc(OC)c(Sc2nc3c(N)ncnc3n2CC2(c3ccc(Cl)cc3)CCC2)c1` [Example 61, 9-[1-(4-Chloro-phenyl)-cyclobutylmethyl]-8-(2,5-dimethoxy-phenylsulfanyl)-9H-purin-6-ylamine] yielded an IC50 of over 10000 nM.
The same measure, in the same setting: then `CC(C)(C)OC(=O)NC(CCn1c(Sc2cc3c(cc2Br)OCO3)nc2c(N)ncnc21)C1CCOCC1` (centres unmarked) [Example 682, [3-[6-Amino-8-(6-bromo-benzo[1,3]dioxol-5-ylsulfanyl)-purin-9-yl]-1-(tetrahydro-pyran-4-yl)-propyl]-carbamic acid tert-butyl ester], with 190 nM; and `CC(C)(C)OC(=O)NC(C)(C)C(=O)N1CCC(CCn2c(Sc3cc4c(cc3Br)OCO4)nc3c(N)ncnc32)CC1` [Example 711], with 600 nM; and `Nc1ncnc2c1nc(Sc1cc3c(cc1Br)OCO3)n2CCc1ccccc1F` [Example 147, 8-(6-Bromo-1,3-benzodioxol-5-ylsulfanyl)-9-[2-(2-fluoro-phenyl)-ethyl]-9H-purin-6-ylamine], with 44 nM.
